{"source": "patent US20110178105A1", "about": "“CLINICAL BENEFITS OF EICOSAPENTAENOIC ACID IN HUMANS” (E.I. DU PONT DE NEMOURS AND COMPANY, priority 2010, published 2011)", "origin": "cited, not measured here", "settings": "human, in vivo; cited from earlier work", "data": [{"substance": "vitamin E", "values": [{"measurement": "benefit in post-myocardial infarction patients", "value": "no benefit"}]}]}
